We go through one compound from patent publication US20070249526A1, “PROCESS FOR THE PREPARATION OF CYCLIC PEPTIDES” (priority 2003, published 2007).

In data set [1] the target is T1, human C5a receptor (Homo sapiens, UniProt P21730).
T1 construct: host or cells: human cells; neutrophils, macrophages, polymorphonuclear leukocytes
T1 sequence (P21730 1-350): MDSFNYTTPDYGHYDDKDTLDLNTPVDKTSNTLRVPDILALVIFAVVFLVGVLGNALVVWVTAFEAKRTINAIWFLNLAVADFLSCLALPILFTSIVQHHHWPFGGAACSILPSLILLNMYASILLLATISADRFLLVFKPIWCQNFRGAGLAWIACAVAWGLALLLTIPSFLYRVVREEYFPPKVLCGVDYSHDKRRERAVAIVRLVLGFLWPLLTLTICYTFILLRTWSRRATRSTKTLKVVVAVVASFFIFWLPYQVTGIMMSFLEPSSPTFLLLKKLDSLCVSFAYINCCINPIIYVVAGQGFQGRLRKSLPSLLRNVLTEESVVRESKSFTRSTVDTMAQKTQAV
Particulars: literature refs 6-9; cited from earlier work.

A further data set can be described thus: physchem. The class given is physicochemical. The protocol: The crude product of Example 15 was purified by prep HPLC using 0.5% AcOH in water and 0.5% AcOH in 90% ACN in water as buffers. The crude product was purified in a gradient program and major fraction was collected. After lyophilization, it gave a white powder which failed the solubility test at 10 mg/ml. ^19F NMR confirmed that there were still two TFA salts in the formula (FIG. 1). This product was repurified on the prepHPLC once more, the major fraction was collected and lyophilized to give 3D53. 12 mg of this product dissolved in 1 ml water gave a clear solution.

The test system of data set [2] is rat models of human disease. To be noted: literature refs 10-15; cited from earlier work.
Data set [3] has as its target T1, human C5a receptor. To be noted: literature refs 6-9; cited from earlier work. The source holds these as a separate data set.

As to `CC(=O)N[C@@H](Cc1ccccc1)C(=O)N[C@H]1CCCNC(=O)[C@H](CCCNC(=N)N)NC(=O)C(Cc2c[nH]c3ccccc23)NC(=O)[C@@H](CC2CCCCC2)NC(=O)C2CCCN2C1=O` (stereo partly drawn) [Compound 1, Ac-Phe[Orn-Pro-D-Cha-Trp-Arg]], the “inhibition in vitro of C5a binding to human cells” value at human C5a receptor [1] is listed as “potent inhibition”. Also, the solubility in the data set “physchem” was under 10000 µg/mL. Further, in the data set “physchem” (in 1 ml water, product repurified by prepHPLC, no TFA salt by 19F NMR), the “amount dissolved giving a clear solution” value is listed as at least 12 mg. For the same compound, the “inhibition in vivo in rat models of human disease” value in data set [2] is on record as “potent inhibition”. Besides, the “inhibition in vitro of C5a-mediated activation of neutrophils and macrophages, chemotaxis, and cytokine release” value on human C5a receptor [3] is given as “potent inhibition”.
